In US7435837B2, “Dihydrobenzofuranyl alkanamine derivatives and methods for using same” (Wyeth, priority 2003, dated 2008):

Biological target: T1, human 5-hydroxytryptamine-2C (h5-HT2C) receptor (Homo sapiens, UniProt P28335)
T1 construct: expressed in transfected cells; host or cells: CHO (Chinese Hamster Ovary) cells; membranes
T1 sequence (P28335 33-458): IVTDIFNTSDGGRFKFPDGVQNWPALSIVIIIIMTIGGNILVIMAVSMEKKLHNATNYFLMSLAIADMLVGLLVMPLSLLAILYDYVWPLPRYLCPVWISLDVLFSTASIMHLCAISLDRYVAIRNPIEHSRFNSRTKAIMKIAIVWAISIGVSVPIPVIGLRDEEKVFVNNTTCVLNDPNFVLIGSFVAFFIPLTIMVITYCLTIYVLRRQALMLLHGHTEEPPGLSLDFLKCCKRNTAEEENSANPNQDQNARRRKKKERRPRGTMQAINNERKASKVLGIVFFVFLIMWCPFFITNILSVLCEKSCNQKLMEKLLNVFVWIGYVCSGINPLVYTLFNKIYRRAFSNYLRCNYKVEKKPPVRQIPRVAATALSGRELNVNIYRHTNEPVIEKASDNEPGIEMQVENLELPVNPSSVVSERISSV
Assay: [125I]DOI binding to membranes of CHO cells expressing the human 5-HT2C receptor
Settings: [125I]DOI radioligand, CHO cell membranes, room temperature 60 min; read-out: 5-HT2C Affinity Ki

Ki [µM] | Structure (SMILES)
0.079 | COc1cc2c(c(C(C)(C)C)c1)OC(CN)C2 (single isomer, unassigned; (-)) [Example 115, (−)-1-(7-tert-butyl-5-methoxy-2,3-dihydro-1-benzofuran-2-yl)methanamine]
1.09 | CNCC1Cc2cc(-c3cccc(F)c3)cc(F)c2O1 (racemic) [Example 535, (±)-{[7-fluoro-5-(3-fluorophenyl)-2,3-dihydro-1-benzofuran-2-yl]methyl}methylamine]
0.055 | CC1(CN)Cc2cc(Cl)cc(-c3ccccc3)c2O1 (racemic) [Example 112, (±)-1-(5-chloro-2-methyl-7-phenyl-2,3-dihydro-1-benzofuran-2-yl)methanamine]
0.133 | COc1cc2c(c(C(C)(C)C)c1)OC(CN)C2 (racemic) [Example 13, (±)-(7-tert-butyl-5-methoxy-2,3-dihydro-1-benzofuran-2-yl)methylamine]
0.191 | COc1ccc2c(c1)OC(CN)C2 (racemic) [Example 30, (±)-1-(6-methoxy-2,3-dihydro-1-benzofuran-2-yl)methanamine]
0.326 | NCC1Cc2cccc(Nc3ccccc3)c2O1 (racemic) [Example 173, (±)-N-[2-(aminomethyl)-2,3-dihydro-1-benzofuran-7-yl]-N-phenylamine]
1.52 | CNCC1Cc2cc(-c3cccc(C)c3)cc(F)c2O1 (racemic) [Example 533, (±)-{7-fluoro-5-[3-methylphenyl]-2,3-dihydro-1-benzofuran-2-yl}methyl)methylamine]
2.14 | CNCC1Cc2cc(-c3ccccc3)cc(-c3ccc(F)cc3F)c2O1 (racemic) [Example 517, (±)-{[7-(2,4-difluorophenyl)-5-phenyl-2,3-dihydro-1-benzofuran-2-yl]methyl}methylamine]
0.324 | NCC1Cc2cc(C(F)(F)F)cc(-c3ccc(F)c(F)c3)c2O1 (racemic) [Example 334, (±)-{[7-(3,4-difluorophenyl)-5-(trifluoromethyl)-2,3-dihydro-1-benzofuran-2-yl]methyl}amine]
0.32 | NCC1Cc2cc(C(F)(F)F)cc(-c3ccc(Cl)cc3)c2O1 (racemic) [Example 325, (±)-{[5-(trifluoromethyl)-7-(4-chlorophenyl)-2,3-dihydro-1-benzofuran-2-yl]methyl}amine]
1.09 | CNCC1Cc2cc(-c3ccccc3C)cc(F)c2O1 (racemic) [Example 528, (±)-{[7-fluoro-5-(2-methylphenyl)-2,3-dihydro-1-benzofuran-2-yl]methyl}methylamine]
1.76 | NCC1Cc2cc(-c3cccc(C(F)(F)F)c3)cc(F)c2O1 (racemic) [Example 383, (±)-({7-fluoro-5-[3-(trifluoromethyl)phenyl]-2,3-dihydro-1-benzofuran-2-yl}methyl)amine]
0.29 | Cc1ccc(Nc2cccc3c2OC(CN)C3)c(C)c1 (racemic) [Example 180, (±)-N-[2-(aminomethyl)-2,3-dihydro-1-benzofuran-7-yl]-N-(2,4-dimethylphenyl)amine]
0.058 | COc1cccc(-c2cccc3c2OC(CN)C3)c1OC (single isomer, unassigned; (+)) [Example 157]
0.0023 | Cc1ccc(Cl)cc1-c1cc(F)cc2c1O[C@@H](CN)C2 [Example 548, {[(2R)-7-(5-chloro-2-methylphenyl)-5-fluoro-2,3-dihydro-1-benzofuran-2-yl]methyl}amine]
1.55 | NCC1Cc2cc(-c3ccc(F)cc3)cc(F)c2O1 (racemic) [Example 387, (±)-{[7-fluoro-5-(4-fluorophenyl)-2,3-dihydro-1-benzofuran-2-yl]methyl}amine]
0.0003 | Cc1ccccc1-c1c(F)ccc2c1OC(CN)C2 (single isomer, unassigned; (+)) [Example 396, (+)-{[6-fluoro-7-(2-methylphenyl)-2,3-dihydro-1-benzofuran-2-yl]methyl}amine]
0.015 | NCC1Cc2cccc(-c3ccccc3)c2O1 (racemic) [Example 36, (±)-1-(7-phenyl-2,3-dihydro-1-benzofuran-2-yl)methanamine]
0.127 | CNCC1Cc2cc(Cl)cc(C3CCCCC3)c2O1 (racemic) [Example 12, (±)-N-[(5-chloro-7-cyclohexyl-2,3-dihydro-1-benzofuran-2-yl)methyl]-N-methylamine]
0.483 | COc1cccc(-c2cccc3c2OC(CN)C3)c1 (single isomer, unassigned; (-)) [Example 134, (−)-1-[7-(3-methoxyphenyl)-2,3-dihydro-1-benzofuran-2-yl]methanamine]
0.025 | Cc1cccc(-c2cccc3c2OC(CN)C3)c1 (racemic) [Example 41, (±)-1-[7-(3-methylphenyl)-2,3-dihydro-1-benzofuran-2-yl]methanamine]

Ki [µM] | Structure (SMILES)
0.13 | CC1(CN)Cc2cc(Cl)cc(-c3ccsc3)c2O1 (racemic) [Example 113, (±)-(5-chloro-2-methyl-7-thien-3-yl-2,3-dihydro-1-benzofuran-2-yl)methylamine]
0.036 | CC(C)(C)c1cccc2c1OC(CN)C2 (racemic) [Example 24, (±)-1-(7-tert-butyl-2,3-dihydro-1-benzofuran-2-yl)methanamine]
0.032 | NCC1Cc2cccc(-c3cccc4ccccc34)c2O1 (racemic) [Example 33, (±)-1-[7-(1-naphthyl)-2,3-dihydro-1-benzofuran-2-yl]methanamine]
0.201 | NCC1Cc2cc(-c3ccccc3C(F)(F)F)cc(F)c2O1 (racemic) [Example 378, (±)-({7-fluoro-5-[2-(trifluoromethyl)phenyl]-2,3-dihydro-1-benzofuran-2-yl}methyl)amine]
0.486 | CNCC1Cc2cc(-c3ccc(F)cc3)cc(F)c2O1 (racemic) [Example 540, (±)-{[7-fluoro-5-(4-fluorophenyl)-2,3-dihydro-1-benzofuran-2-yl]methyl}methylamine]
0.204 | NCC1Cc2c(cccc2-c2ccccc2)O1 (single isomer, unassigned; (-)) [Example 3, (−)-1-(4-phenyl-2,3-dihydro-1-benzofuran-2-yl)methanamine]
0.054 | NCC1Cc2cccc(-c3ccsc3)c2O1 (single isomer, unassigned; (-)) [Example 46, (−)-1-(7-thien-3-yl-2,3-dihydro-1-benzofuran-2-yl)methanamine]
0.876 | Cc1cccc(-c2cc(-c3ccccc3)cc3c2OC(CN)C3)c1 (racemic) [Example 352, (±)-{[7-(3-methylphenyl)-5-phenyl-2,3-dihydro-1-benzofuran-2-yl]methyl}amine]
0.071 | Cc1ccccc1-c1cc(F)c2c(c1)CC(CN)O2 (racemic) [Example 375, (±)-{[7-fluoro-5-(2-methylphenyl)-2,3-dihydro-1-benzofuran-2-yl]methyl}amine]
1.12 | CNCC1Cc2cc(-c3cccc(C(F)(F)F)c3)cc(F)c2O1 (racemic) [Example 536, (±)-{7-fluoro-5-[3-(trifluoromethyl)phenyl]-2,3-dihydro-1-benzofuran-2-yl}methyl)methylamine]
0.026 | COc1cc(Cl)cc2c1OC(CN)C2 (racemic) [Example 111, (±)-1-(5-chloro-7-methoxy-2,3-dihydro-1-benzofuran-2-yl)methanamine]
0.087 | NCC1Cc2cc(C(F)(F)F)cc(-c3cccc(F)c3F)c2O1 (racemic) [Example 329, (±)-{[7-(2,3-difluorophenyl)-5-(trifluoromethyl)-2,3-dihydro-1-benzofuran-2-yl]methyl}amine]
0.142 | Cc1cc(C)cc(Nc2cccc3c2OC(CN)C3)c1 (racemic) [Example 192, (±)-N-[2-(aminomethyl)-2,3-dihydro-1-benzofuran-7-yl]-N-(3,5-dimethylphenyl)amine]
0.276 | Cc1cccc(C)c1-c1cccc2c1CC(CN)O2 (racemic) [Example 125, (±)-1-[4-(2,6-dimethylphenyl)-2,3-dihydro-1-benzofuran-2-yl]methanamine]
0.372 | CNCC1Cc2cc(C(F)(F)F)cc(-c3cccc(F)c3)c2O1 (racemic) [Example 520, (±)-N-methyl-1-[7-(3-fluorophenyl)-5-(trifluoromethyl)-2,3-dihydro-1-benzofuran-2-yl]methanamine]
0.453 | COc1ccccc1-c1cc(F)c2c(c1)CC(CN)O2 (racemic) [Example 379, (±)-{[7-fluoro-5-(2-methoxyphenyl)-2,3-dihydro-1-benzofuran-2-yl]methyl}amine]
0.38 | CNCC1Cc2cc(-c3ccc(C)cc3)cc(F)c2O1 (racemic) [Example 538, (±)-{7-fluoro-5-[4-methylphenyl]-2,3-dihydro-1-benzofuran-2-yl}methyl)methylamine]
0.185 | NCC1Cc2cccc(-c3cccnc3)c2O1 (single isomer, unassigned; (-)) [Example 172, (−)-{[7-pyridin-3-yl-2,3-dihydro-1-benzofuran-2-yl]methyl}amine]
0.037 | NCC1Cc2cccc(-c3ccc(F)c(Cl)c3)c2O1 (racemic) [Example 34, (±)-1-[7-(3-chloro-4-fluorophenyl)-2,3-dihydro-1-benzofuran-2-yl]methanamine]
0.81 | CNCC1Cc2cc(-c3ccccc3)cc(-c3cccc(C)c3)c2O1 (racemic) [Example 512, (±)-{[7-(3-methylphenyl)-5-phenyl-2,3-dihydro-1-benzofuran-2-yl]methyl}methylamine]
